Laboratory results as given in publication PMC2747657 (Bioorganic & medicinal chemistry, 2009).
Read-outs that look alike come from different tables or passages of the source.

Tests used:
NET [1] = molecular target: T1, NET (Rattus norvegicus, UniProt Q63380); experiment: Inhibition of [3H]nisoxetine binding at the NET
5-HTT = 5-HTT (Rattus norvegicus, UniProt P31652); experiment: Inhibition of [3H]paroxetine binding at the 5-HTT; settings: for Ki: 5-HTT, Ki [3H]paroxetine; for NET/5-HTT Ratio: ratio of Ki values of NET/5-HTT, selectivity for the 5-HTT relative to the NET
DAT = DAT (Rattus norvegicus, UniProt P23977); experiment: Inhibition of [3H]WIN35,428 binding at the DAT
NET [2] = molecular target: T1, NET; settings: read-out: NET, Ki [3H]nisoxetine; inhibition of [3H]nisoxetine binding; cited from earlier work
[3] = relative to N-methyl compound 7a

T1 sequence (Q63380 1-617): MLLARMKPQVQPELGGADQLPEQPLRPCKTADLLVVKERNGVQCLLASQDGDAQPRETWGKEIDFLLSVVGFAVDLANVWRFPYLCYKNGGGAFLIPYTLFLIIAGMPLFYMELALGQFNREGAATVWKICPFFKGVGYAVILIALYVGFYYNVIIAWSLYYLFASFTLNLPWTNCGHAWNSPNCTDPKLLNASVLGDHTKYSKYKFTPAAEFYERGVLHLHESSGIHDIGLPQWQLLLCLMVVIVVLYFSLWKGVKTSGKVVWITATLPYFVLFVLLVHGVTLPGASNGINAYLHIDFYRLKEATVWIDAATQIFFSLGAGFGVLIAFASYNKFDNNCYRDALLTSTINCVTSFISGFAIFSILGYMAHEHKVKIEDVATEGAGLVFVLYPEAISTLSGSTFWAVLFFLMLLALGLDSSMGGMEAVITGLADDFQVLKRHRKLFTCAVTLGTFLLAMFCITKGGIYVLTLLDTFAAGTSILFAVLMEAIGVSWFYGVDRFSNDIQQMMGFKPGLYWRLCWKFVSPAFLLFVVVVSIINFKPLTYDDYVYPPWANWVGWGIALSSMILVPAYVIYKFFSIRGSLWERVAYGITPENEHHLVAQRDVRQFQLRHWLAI
Chain of 5-HTT (P31652 whole entry): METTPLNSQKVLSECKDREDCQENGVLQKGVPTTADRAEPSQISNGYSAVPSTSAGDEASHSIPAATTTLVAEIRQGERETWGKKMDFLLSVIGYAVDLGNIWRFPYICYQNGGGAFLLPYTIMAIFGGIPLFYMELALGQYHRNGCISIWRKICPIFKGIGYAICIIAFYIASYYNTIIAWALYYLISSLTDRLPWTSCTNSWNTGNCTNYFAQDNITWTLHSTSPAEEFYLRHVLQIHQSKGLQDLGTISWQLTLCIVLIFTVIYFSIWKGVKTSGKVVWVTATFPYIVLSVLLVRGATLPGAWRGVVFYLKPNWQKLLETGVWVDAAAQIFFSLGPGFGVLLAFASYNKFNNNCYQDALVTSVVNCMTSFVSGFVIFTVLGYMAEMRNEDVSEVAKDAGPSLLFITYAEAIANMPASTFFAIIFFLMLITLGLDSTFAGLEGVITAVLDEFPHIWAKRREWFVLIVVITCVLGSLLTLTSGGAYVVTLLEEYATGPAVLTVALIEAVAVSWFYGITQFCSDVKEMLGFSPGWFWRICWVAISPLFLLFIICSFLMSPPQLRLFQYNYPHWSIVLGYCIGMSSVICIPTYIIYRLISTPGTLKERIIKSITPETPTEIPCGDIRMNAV
Chain of DAT (P23977 whole entry): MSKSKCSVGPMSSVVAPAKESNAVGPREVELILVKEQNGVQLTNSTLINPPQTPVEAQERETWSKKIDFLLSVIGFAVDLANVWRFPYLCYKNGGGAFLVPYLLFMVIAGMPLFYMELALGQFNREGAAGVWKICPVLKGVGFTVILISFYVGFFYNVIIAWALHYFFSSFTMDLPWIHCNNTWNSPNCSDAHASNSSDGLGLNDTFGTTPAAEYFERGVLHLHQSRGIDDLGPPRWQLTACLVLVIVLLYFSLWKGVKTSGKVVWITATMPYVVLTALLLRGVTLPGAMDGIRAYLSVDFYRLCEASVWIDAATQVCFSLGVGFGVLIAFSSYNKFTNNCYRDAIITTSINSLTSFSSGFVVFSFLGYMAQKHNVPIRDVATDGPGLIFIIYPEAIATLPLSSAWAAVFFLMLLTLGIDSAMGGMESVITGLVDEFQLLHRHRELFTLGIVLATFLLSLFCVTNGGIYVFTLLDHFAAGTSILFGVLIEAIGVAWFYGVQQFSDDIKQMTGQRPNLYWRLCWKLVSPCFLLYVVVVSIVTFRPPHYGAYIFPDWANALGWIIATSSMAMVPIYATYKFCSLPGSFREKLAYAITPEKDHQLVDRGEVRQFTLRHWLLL

| Structure (SMILES) | Ki (NET [1]) | Ki (5-HTT) | further results |
| --- | --- | --- | --- |
| COC(=O)[C@H]1[C@@H](c2ccc(SC)cc2)C[C@@H]2CC[C@H]1N2C [7a, 3β-(4-Methylthiophenyl)tropane-2β-carboxylic acid methyl ester] | 220 ± 10 nM | 220 nM | NET/5-HTT Ratio (5-HTT): 314-364 |
| CCSc1ccc([C@H]2C[C@@H]3CC[C@H]([C@H]2C(=O)OC)N3C)cc1 [7b, 3β-(4-Ethylthiophenyl)tropane-2β-carboxylic acid methyl ester] | 1170 ± 300 nM | 4.5 ± 0.5 nM | – |
| COC(=O)[C@H]1[C@@H](c2ccc(SC(C)C)cc2)C[C@@H]2CC[C@H]1N2C [7c, 3β-(4-Isopropylthiophenyl)tropane-2β-carboxylic acid methyl ester] | 129 ± 2 nM | 129 nM | – |
| COC(=O)[C@H]1[C@@H](c2ccc(SC(F)(F)F)cc2)C[C@@H]2CC[C@H]1N2C [7d, 3β-(4-Trifluoromethylthiophenyl)tropane-2β-carboxylic acid methyl ester] | 1900 ± 300 nM | – | – |
| COC(=O)[C@H]1[C@@H](c2ccc(SC)c(Br)c2)C[C@@H]2CC[C@H]1N2C [7e, 3β-(3-Bromo-4-methylthiophenyl)tropane-2β-carboxylic acid methyl ester] | 121 ± 12 nM | – | – |
| COC(=O)[C@H]1[C@@H](c2ccc([S+](C)[O-])c(Br)c2)C[C@@H]2CC[C@H]1N2C (stereo partly drawn) [7f, 3β-(3-bromo-4-methylsulfinylphenyl)tropane-2β-carboxylic acid methyl ester] | 690 ± 80 nM | – | – |
| COC(=O)[C@H]1[C@@H](c2ccc([S+](C)[O-])cc2)C[C@@H]2CC[C@H]1N2C (stereo partly drawn) [7g, 3β-(4-methylsulfinylphenyl)tropane-2β-carboxylic acid methyl ester] | 515 ± 60 nM | 4.3 ± 0.6 nM | – |
| COC(=O)[C@H]1[C@@H](c2ccc(S(C)(=O)=O)cc2)C[C@@H]2CC[C@H]1N2C [7h, 3β-(4-Methylsulfonylphenyl)tropane-2β-carboxylic acid methyl ester] | > 10000 nM | 208 ± 45 nM | IC50 (DAT): > 10 µM |
| COC(=O)[C@@H]1C2CCC(C[C@@H]1c1ccc(SC)cc1)N2 (stereo partly drawn) [8a, 3β-(4-Methylthiophenyl)nortropane-2β-carboxylic acid methyl ester] | – | – | fold increase in affinity at the NET (NET [1]; [3]): ~10 fold; fold less affinity at the DAT (DAT; [3]): 3 fold; fold increase in affinity at the 5-HTT (5-HTT; [3]): approximately 4 fold |
| COC(=O)[C@@H]1C2CCC(C[C@@H]1c1ccc(SC)cc1)N2CCCF (stereo partly drawn) [9a, 3β-(4-Methylthiophenyl)-8-(3-fluoropropyl)nortropane-2β-carboxylic acid methyl ester] | – | – | NET/5-HTT Ratio (5-HTT): 314-364 |
| C=CCN1C2CCC1[C@@H](C(=O)OC)[C@@H](c1ccc(SC)cc1)C2 (stereo partly drawn) [10a, 3β-(4-Methylthiophenyl)-8-allylnortropane-2β-carboxylic acid methyl ester] | – | – | NET/5-HTT Ratio (5-HTT): 314-364 |
| COC(=O)[C@H]1[C@@H](c2ccc(OC)cc2)C[C@@H]2CC[C@H]1N2C [compound 5, 3β-(4-methoxyphenyl)tropane-2β-carboxylic acid methyl ester] | – | – | Ki (NET [2]): 1110 ± 64 nM |
